In patent US20250171495A1, “MUTLI-TARGETED SERINE PROTEASE INHIBITORS FOR TREATMENT OF CANCER AND VIRAL INFECTION” (Washington University, priority 2023, published 2025):
Where “and” joins values, the source holds several entries; their conditions need not be identical. Equal values may be shown once.

How the values were obtained:
Assay type in all cases: biochemical
matriptase = target: T1, matriptase (Homo sapiens, UniProt Q9Y5Y6); test: HyCoSuL P4-P2 substrate specificity screening, matriptase; conditions: for P2 Position Substrate Activity for matriptase (percent substrate cleavage/proteolysis): residue fixed at P2 position; for P3 Position Various Amino Acids Substrate Activity, matriptase (percent substrate cleavage/proteolysis): residue fixed at P3 position of substrate library; for P4 Position Various Amino Acids Substrate Activity, matriptase (percent substrate proteolysis/cleavage): residue fixed at P4 position of substrate library; for P4 Position Substrate Activity for matriptase (percent substrate cleavage/proteolysis): residue fixed at P4 position
T1 sequence (Q9Y5Y6 1-855): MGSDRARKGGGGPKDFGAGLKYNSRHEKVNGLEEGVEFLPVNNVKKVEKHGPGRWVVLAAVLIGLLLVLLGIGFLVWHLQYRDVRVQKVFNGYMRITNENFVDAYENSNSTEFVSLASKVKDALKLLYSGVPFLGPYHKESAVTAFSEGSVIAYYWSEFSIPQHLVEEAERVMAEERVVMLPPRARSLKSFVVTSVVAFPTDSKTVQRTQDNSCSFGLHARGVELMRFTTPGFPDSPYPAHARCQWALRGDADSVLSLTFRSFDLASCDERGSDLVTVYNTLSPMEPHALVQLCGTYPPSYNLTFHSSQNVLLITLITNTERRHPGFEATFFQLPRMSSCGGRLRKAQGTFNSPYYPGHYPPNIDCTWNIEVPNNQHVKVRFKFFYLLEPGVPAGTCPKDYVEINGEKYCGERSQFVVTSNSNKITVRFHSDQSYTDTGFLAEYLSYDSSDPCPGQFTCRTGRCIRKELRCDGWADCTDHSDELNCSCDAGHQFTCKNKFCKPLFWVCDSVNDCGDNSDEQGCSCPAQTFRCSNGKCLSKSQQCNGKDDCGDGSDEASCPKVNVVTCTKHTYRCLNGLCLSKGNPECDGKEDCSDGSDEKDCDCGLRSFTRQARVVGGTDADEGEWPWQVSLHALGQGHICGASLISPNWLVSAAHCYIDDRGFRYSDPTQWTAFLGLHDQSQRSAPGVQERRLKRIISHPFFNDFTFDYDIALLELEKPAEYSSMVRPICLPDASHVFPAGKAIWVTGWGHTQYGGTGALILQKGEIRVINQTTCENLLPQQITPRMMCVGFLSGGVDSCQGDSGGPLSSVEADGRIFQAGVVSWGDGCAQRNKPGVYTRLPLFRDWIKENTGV

HGFA = target: T2, HGFA (Homo sapiens, UniProt Q04756); test: HyCoSuL P4-P2 substrate specificity screening, HGFA; conditions: for P2 Position Substrate Activity for HGFA (percent substrate cleavage/proteolysis): residue fixed at P2 position; for P3 Position Various Amino Acids Substrate Activity, HGFA (percent substrate cleavage/proteolysis): residue fixed at P3 position of substrate library; for P4 Position Various Amino Acids Substrate Activity, HGFA (percent substrate proteolysis/cleavage): residue fixed at P4 position of substrate library; for P4 Position Substrate Activity for HGFA (percent substrate cleavage/proteolysis): residue fixed at P4 position
T2 sequence (Q04756 373-655): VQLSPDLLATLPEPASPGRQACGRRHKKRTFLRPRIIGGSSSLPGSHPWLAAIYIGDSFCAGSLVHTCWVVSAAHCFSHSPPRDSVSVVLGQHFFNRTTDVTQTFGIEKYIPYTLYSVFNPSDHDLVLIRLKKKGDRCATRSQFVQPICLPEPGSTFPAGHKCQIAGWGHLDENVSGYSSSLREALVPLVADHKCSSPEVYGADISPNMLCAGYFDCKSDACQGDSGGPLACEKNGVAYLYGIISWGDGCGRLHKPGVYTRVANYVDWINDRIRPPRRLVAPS

TMPRSS2 = TMPRSS2 (Homo sapiens, UniProt O15393); test: PS-SCL / HyCoSuL substrate specificity screening, TMPRSS2; conditions: for P2 Position Substrate Activity for TMPRSS2 (percent substrate cleavage/proteolysis): residue fixed at P2 position of substrate library; for P4 Position Various Amino Acids Substrate Activity, TMPRSS2 (percent substrate proteolysis/cleavage) / P4 Position Substrate Activity for TMPRSS2 (percent substrate cleavage/proteolysis): residue fixed at P4 position of substrate library
TMPRSS2, sequence (O15393 whole entry): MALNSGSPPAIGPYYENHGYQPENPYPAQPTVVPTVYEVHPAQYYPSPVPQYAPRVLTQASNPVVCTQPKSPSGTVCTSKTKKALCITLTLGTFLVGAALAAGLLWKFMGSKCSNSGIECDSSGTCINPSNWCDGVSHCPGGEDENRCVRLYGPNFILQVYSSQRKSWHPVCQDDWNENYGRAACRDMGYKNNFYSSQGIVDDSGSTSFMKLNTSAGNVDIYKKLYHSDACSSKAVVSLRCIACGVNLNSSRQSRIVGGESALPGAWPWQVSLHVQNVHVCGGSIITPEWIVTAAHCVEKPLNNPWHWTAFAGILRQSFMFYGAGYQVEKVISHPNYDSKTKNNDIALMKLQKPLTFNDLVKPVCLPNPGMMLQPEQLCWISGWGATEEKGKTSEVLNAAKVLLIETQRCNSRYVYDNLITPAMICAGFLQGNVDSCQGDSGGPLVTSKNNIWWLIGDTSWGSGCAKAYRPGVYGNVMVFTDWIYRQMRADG

hepsin = target: T3, hepsin (Homo sapiens, UniProt P05981); test: HyCoSuL P4-P2 substrate specificity screening, hepsin; conditions: for P2 Position Substrate Activity for hepsin (percent substrate cleavage/proteolysis): residue fixed at P2 position; for P3 Position Various Amino Acids Substrate Activity, hepsin (percent substrate cleavage/proteolysis): residue fixed at P3 position of substrate library; for P4 Position Various Amino Acids Substrate Activity, hepsin (percent substrate proteolysis/cleavage): residue fixed at P4 position of substrate library; for P4 Position Substrate Activity for hepsin (percent substrate cleavage/proteolysis): residue fixed at P4 position
T3 construct: purchased R&D Systems 4776-SE-010
T3 sequence (P05981 163-417 limits assumed): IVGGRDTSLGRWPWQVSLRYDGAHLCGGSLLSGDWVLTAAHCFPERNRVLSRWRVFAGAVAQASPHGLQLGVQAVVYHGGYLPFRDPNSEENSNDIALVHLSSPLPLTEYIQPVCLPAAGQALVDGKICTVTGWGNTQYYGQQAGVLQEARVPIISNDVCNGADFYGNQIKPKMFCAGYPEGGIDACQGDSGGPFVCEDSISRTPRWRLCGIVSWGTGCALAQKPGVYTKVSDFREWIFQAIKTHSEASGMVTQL
T3 sequence (P05981 1-162 partner limits assumed): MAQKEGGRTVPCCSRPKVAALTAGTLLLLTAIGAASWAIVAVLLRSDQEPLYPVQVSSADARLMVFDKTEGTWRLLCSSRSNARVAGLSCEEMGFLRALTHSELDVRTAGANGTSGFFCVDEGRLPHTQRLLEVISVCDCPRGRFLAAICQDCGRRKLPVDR

[1] = P1-Arg HyCoSuL, 100 μM, best recognized amino acid set to 100%
[2] = best recognized amino acid set to 100%
[3] = residue fixed at P3 position of substrate library
[4] = residue fixed at P3 position, P1-Arg HyCoSuL, 100 μM, best recognized amino acid set to 100%

Substance	P2 Position Substrate Activity for matriptase (percent substrate cleavage/proteolysis) (matriptase; [1])	P3 Position Various Amino Acids Substrate Activity, matriptase (percent substrate cleavage/proteolysis) (matriptase)	P4 Position Various Amino Acids Substrate Activity, matriptase (percent substrate proteolysis/cleavage) (matriptase)	P2 Position Substrate Activity for HGFA (percent substrate cleavage/proteolysis) (HGFA; [1])	P3 Position Various Amino Acids Substrate Activity, HGFA (percent substrate cleavage/proteolysis) (HGFA)	P4 Position Various Amino Acids Substrate Activity, HGFA (percent substrate proteolysis/cleavage) (HGFA)	P2 Position Substrate Activity for TMPRSS2 (percent substrate cleavage/proteolysis) (TMPRSS2; [2])	P3 Position Various Amino Acids Substrate Activity, TMPRSS2 (percent substrate cleavage/proteolysis) (TMPRSS2; [3])	P4 Position Various Amino Acids Substrate Activity, TMPRSS2 (percent substrate proteolysis/cleavage) (TMPRSS2)	P2 Position Substrate Activity for hepsin (percent substrate cleavage/proteolysis) (hepsin; [1])	P3 Position Various Amino Acids Substrate Activity, hepsin (percent substrate cleavage/proteolysis) (hepsin)	P4 Position Various Amino Acids Substrate Activity, hepsin (percent substrate proteolysis/cleavage) (hepsin)	P4 Position Substrate Activity for matriptase (percent substrate cleavage/proteolysis) (matriptase; [1])	P4 Position Substrate Activity for HGFA (percent substrate cleavage/proteolysis) (HGFA; [1])	P4 Position Substrate Activity for TMPRSS2 (percent substrate cleavage/proteolysis) (TMPRSS2; [2])	P4 Position Substrate Activity for hepsin (percent substrate cleavage/proteolysis) (hepsin; [1])	P3 Position Substrate Activity for matriptase (percent substrate cleavage/proteolysis) (matriptase; [4])	P3 Position Substrate Activity for HGFA (percent substrate cleavage/proteolysis) (HGFA; [4])	P3 Position Substrate Activity for TMPRSS2 (percent substrate cleavage/proteolysis) (TMPRSS2; residue fixed at P3 position of substrate library, best recognized amino acid set to 100%)	P3 Position Substrate Activity for hepsin (percent substrate cleavage/proteolysis) (hepsin; [4])
L-Gln	1%	18%	0%	0.89%	3.47%	1.96%	6.03%	52.35%	26.44%	0.00%	16.72%	0.76%	–	–	–	–	–	–	–	–
L-Glu	6%	44%	18%	3.35%	15.98%	9.01%	6.08%	56.51%	9.81%	12.19%	58.69%	29.82%	–	–	–	–	–	–	–	–
L-His	30%	17%	10%	4.00%	11.93%	8.90%	15.38%	26.27%	24.98%	31.24%	43.05%	25.35%	–	–	–	–	–	–	–	–
L-Hyp	2%	0%	50%	3.95%	2.18%	–	10.38%	2.19%	–	38.67%	4.70%	–	50.16%	10.66%	33.28%	37.81%	–	–	–	–
L-Ile	3%	13%	32%	4.94%	9.06%	14.09%	7.29%	13.26%	63.74%	45.68%	11.37%	47.02%	–	–	–	–	–	–	–	–
L-Leu	12%	22%	17%	100.00%	13.71%	10.18%	5.90%	18.81%	30.24%	100.00%	19.51%	33.10%	–	–	–	–	–	–	–	–
L-Lys	6%	81%	75%	1.04%	–	–	3.79%	–	–	46.70%	–	–	75.49%	18.29%	14.11%	75.43%	76.43% and 80.67%	44.63%	27.86%	80.71%
